Assay results reported in patent US20180353501A1 (Arvinas, Inc., priority 2017, published 2018).
Where two headings read alike, the source gives them in different places.

Key:
[1] = molecular target: T1, cMET (Homo sapiens, UniProt P08581); test: Western blot examination of protein degradation, MDA-MB-231 cells; format: cell-based; conditions: 24 hours
T1 construct: endogenous in cells; host or cells: MDA-MB-231
Procedure: FIG. 4. Illustrates the degradation of Met by exemplary VHL (Examples 1 and 6) and cereblon (Examples 2 and 8) PROTACS.
Western Blot Examination of Protein Degradation.
MDA-MB-231 cells (1-1.5×10^6) were treated for 24 hours with the indicated compounds solubilized in DMSO. The cells were collected at 300 g for 3 minutes. The cells were then lysed in lysis buffer (25 mM Tris, 1% Triton, 0.25% deoxycholic acid) with Roche protease inhibitor complete cocktail and phosphatase inhibitors (10 mM sodium fluoride, 10 mM sodium pyrophosphate, 1 mM sodium orthovanadate and 20 mM β-glycerophosphate). The total protein concentrations were determined by Pierce BCA Protein Assay and 30-50 μg of protein was loaded onto 10% Tris-Glycine gels. After standard gel electrophoresis, the separated proteins were transferred to nitrocellulose by wet transfer. The immunoblots were then processed by standard procedures and incubated with the respective antibodies. Band intensities were quantified by Bio-Rad's Image Lab software.

[2] = Pharmacokinetics of intraperitoneal or intravenous injection in CD1 mice (plasma, LC/MS/MS); format: in vivo; conditions: for concentration at 0.25 h / concentration at 0.5 h / concentration at 1 h / concentration at 2 h / concentration at 4 h / concentration at 8 h / concentration at 24 h / concentration at 0.033 h / concentration at 0.083 h: male, CD1, mouse, plasma
Procedure: Pharmacokinetics of Intraperitoneal or Intravenous Injection of Example 1 or Example 2.
The pharmacokinetics of Example 1 and 2 was examined for intraperitoneal and intravenous administration. The desired serial concentrations of working solutions were achieved by diluting stock solution (1 mg/mL in DMSO) of analyte with methanol. In particular, 20 μL of working solutions (1, 2, 5, 10, 50, 100, 500, 1000, 2000 ng/mL) were added to 20 μL of the blank CD1 mice plasma to achieve calibration standards of 1-2000 ng/mL (1, 2, 5, 10, 50, 100, 500, 1000, 2000 ng/mL) in a total volume of 40 pt. Dose of IV and IP were diluted by 1000 fold and 10000 with methanol, 20 μL of the diluted dose solutions were added to 20 μL of the blank CD1 mice plasma to achieve dose samples. Next, 40 μL standards and 40 μL dose samples were added to 20 μL of assay Internal Standard (100 ng/mL) and 200 μL of acetonitrile for precipitating protein respectively. Then the samples were vortexed for 30 seconds. After centrifugation at 4 degree Celsius, 4000 rpm for 15 min, the supernatant was diluted 3 times with water. Then, 10 μL of the diluted supernatant was injected into the LC/MS/MS system for quantitative analysis.
Examples 1 and 2 were administered intravenously (5 second injection of 10% HP-b-CD and 40 mM sodium acetate and 40 mM NaCl in water, pH4.5) or intraperitoneally (5% EtOH and 5% Solutol HS15 in D5W(ESD-2)) to 6-8 week old male CD1 mice (3 mice per treatment group for a total of 12 mice) at the time points indicated below in Table 3. The mice had free access to food and water.
Dorsal metatarsal vein samples (30 μL), except that the final sample was acquired via a heart puncture, were taken from the mice at the same the administration time points as shown in Table 2.
The data for Example 1 is shown below in FIG. 5 and Tables 5 (FIG. 6), 6 and 7. The data for Example 2 is shown in FIG. 7 and Tables 8 (FIG. 8), 9, and 10.

[3] = molecular target: T2, MAK (Homo sapiens, UniProt P20794); test: KINOMEscan in vitro kinase binding; conditions: screened at 1000 nM; lower number = stronger binding
T2 construct: purchased DiscoverRx Corporation (KINOMEscan platform, service)
Procedure: In Vitro Kinase Binding Affinity Determination for Example 1 and Example 2.
(§1) PROTAC in vitro binding affinities (Kd) to c-Met was determined using the KINOMEscan™ platform (DiscoverRx Corporation). The compounds were solubilized in DMSO and sent to DiscoverRx Corporation as 10 μM stock solutions.
Example 1 and Example 2 were screened at a 1000 nM concentration, and the results of the binding interactions are reported in “% Ctrl”, where a lower number indicates stronger binding. % Ctrl=[(test compound signal−positive control signal)/(negative control signal−positive control signal)]×100, wherein the negative control was DMSO.

[4] = molecular target: T3, MET (Y1235D) (Homo sapiens, UniProt P08581, Y1235D); test: KINOMEscan in vitro kinase binding; conditions: screened at 1000 nM; lower number = stronger binding
T3 construct: purchased DiscoverRx Corporation (KINOMEscan platform, service)
Procedure: as §1

[5] = molecular target: T4, MET (Homo sapiens, UniProt P08581); test: KINOMEscan in vitro kinase binding; conditions: screened at 1000 nM
T4 construct: purchased DiscoverRx Corporation (KINOMEscan platform, service)
Procedure: as §1

[6] = molecular target: T5, MET (M1250T) (Homo sapiens, UniProt P08581, M1250T); test: KINOMEscan in vitro kinase binding; conditions: screened at 1000 nM; lower number = stronger binding
T5 construct: purchased DiscoverRx Corporation (KINOMEscan platform, service)
Procedure: as §1

[7] = ip, 10 mg/kg, IP 10 mg/kg, read-out: Conc. Mean
[8] = ip, 10 mg/kg, IP 10 mg/kg, read-out: Conc. Mouse 1
[9] = ip, 10 mg/kg, IP 10 mg/kg, read-out: Conc. Mouse 2
[10] = ip, 10 mg/kg, IP 10 mg/kg, read-out: Conc. Mouse 3
[11] = iv, 1 mg/kg, IV 1.0 mg/kg, read-out: Conc. Mean
[12] = iv, 1 mg/kg, IV 1.0 mg/kg, read-out: Conc. Mouse 1
[13] = iv, 1 mg/kg, IV 1.0 mg/kg, read-out: Conc. Mouse 2
[14] = iv, 1 mg/kg, IV 1.0 mg/kg, read-out: Conc. Mouse 3

T2 sequence (P20794 whole entry): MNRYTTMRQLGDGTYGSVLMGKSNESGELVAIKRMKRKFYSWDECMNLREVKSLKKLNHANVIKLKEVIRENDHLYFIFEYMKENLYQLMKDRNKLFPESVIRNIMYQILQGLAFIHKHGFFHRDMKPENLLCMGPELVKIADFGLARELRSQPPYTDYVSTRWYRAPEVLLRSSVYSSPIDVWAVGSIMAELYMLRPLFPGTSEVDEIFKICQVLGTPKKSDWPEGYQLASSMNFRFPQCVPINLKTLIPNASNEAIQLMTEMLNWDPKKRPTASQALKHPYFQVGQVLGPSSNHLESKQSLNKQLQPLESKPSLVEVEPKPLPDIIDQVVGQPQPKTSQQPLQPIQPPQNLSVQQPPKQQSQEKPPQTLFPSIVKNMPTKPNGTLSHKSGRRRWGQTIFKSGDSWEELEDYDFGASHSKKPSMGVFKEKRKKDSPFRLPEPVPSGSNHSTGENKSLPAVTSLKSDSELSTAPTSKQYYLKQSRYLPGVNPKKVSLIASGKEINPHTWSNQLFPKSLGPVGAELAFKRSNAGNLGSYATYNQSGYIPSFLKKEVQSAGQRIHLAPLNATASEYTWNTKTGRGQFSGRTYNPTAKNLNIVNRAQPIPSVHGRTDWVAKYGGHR

Compound: COc1cc2c(Oc3ccc(NC(=O)C4(C(=O)Nc5ccc(F)cc5)CC4)cc3F)ccnc2cc1OCCCOCCCOCCC(=O)N[C@H](C(=O)N1C[C@H](O)C[C@H]1C(=O)NCc1ccc(-c2scnc2C)cc1)C(C)(C)C [Example 1]
- degradation of c-Met (western blot) [1]: significant protein degradation of c-Met
- Conc. Mouse 1 ([2]; IV 1.0 mg/kg, 24 h): BLOQ
- Conc. Mouse 2 ([2]; IV 1.0 mg/kg, 24 h): BLOQ
- concentration at 0.25 h [2, 7]: 2200 ng/mL
- concentration at 0.25 h [2, 8]: 3420 ng/mL
- concentration at 0.25 h [2, 9]: 2180 ng/mL
- concentration at 0.25 h [2, 10]: 990 ng/mL
- concentration at 0.5 h [2, 7]: 3310 ng/mL
- concentration at 0.5 h [2, 8]: 5210 ng/mL
- concentration at 0.5 h [2, 9]: 2500 ng/mL
- concentration at 0.5 h [2, 10]: 2210 ng/mL
- concentration at 1 h [2, 7]: 5530 ng/mL
- concentration at 1 h [2, 8]: 4470 ng/mL
- concentration at 1 h [2, 9]: 9060 ng/mL
- concentration at 1 h [2, 10]: 3050 ng/mL
- concentration at 2 h [2, 7]: 7500 ng/mL
- concentration at 2 h [2, 8]: 5740 ng/mL
- concentration at 2 h [2, 9]: 6210 ng/mL
- concentration at 2 h [2, 10]: 10500 ng/mL
- concentration at 4 h [2, 7]: 4520 ng/mL
- concentration at 4 h [2, 8]: 6340 ng/mL
- concentration at 4 h [2, 9]: 3740 ng/mL
- concentration at 4 h [2, 10]: 3460 ng/mL
- concentration at 8 h [2, 7]: 411 ng/mL
- concentration at 8 h [2, 8]: 476 ng/mL
- concentration at 8 h [2, 9]: 329 ng/mL
- concentration at 8 h [2, 10]: 429 ng/mL
- concentration at 24 h ([2]; ip, 10 mg/kg, IP 10 mg/kg, 24 h, read-out: Conc. Mean): 12.3 ng/mL
- concentration at 24 h ([2]; ip, 10 mg/kg, IP 10 mg/kg, 24 h, read-out: Conc. Mouse 1): 12.2 ng/mL
- concentration at 24 h ([2]; ip, 10 mg/kg, IP 10 mg/kg, 24 h, read-out: Conc. Mouse 2): 9.43 ng/mL
- concentration at 24 h ([2]; ip, 10 mg/kg, IP 10 mg/kg, 24 h, read-out: Conc. Mouse 3): 15.1 ng/mL
- concentration at 0.033 h [2, 11]: 2350 ng/mL
- concentration at 0.033 h [2, 12]: 2050 ng/mL
- concentration at 0.033 h [2, 13]: 2820 ng/mL
- concentration at 0.033 h [2, 14]: 2190 ng/mL
- concentration at 0.083 h [2, 11]: 1530 ng/mL
- concentration at 0.083 h [2, 12]: 1200 ng/mL
- concentration at 0.083 h [2, 13]: 1810 ng/mL
- concentration at 0.083 h [2, 14]: 1590 ng/mL
- concentration at 0.25 h [2, 11]: 691 ng/mL
- concentration at 0.25 h [2, 12]: 491 ng/mL
- concentration at 0.25 h [2, 13]: 991 ng/mL
- concentration at 0.25 h [2, 14]: 590 ng/mL
- concentration at 0.5 h [2, 11]: 397 ng/mL
- concentration at 0.5 h [2, 12]: 280 ng/mL
- concentration at 0.5 h [2, 13]: 497 ng/mL
- concentration at 0.5 h [2, 14]: 413 ng/mL
- concentration at 1 h [2, 11]: 143 ng/mL
- concentration at 1 h [2, 12]: 142 ng/mL
- concentration at 1 h [2, 13]: 135 ng/mL
- concentration at 1 h [2, 14]: 153 ng/mL
- concentration at 2 h [2, 11]: 70.3 ng/mL
- concentration at 2 h [2, 12]: 55.5 ng/mL
- concentration at 2 h [2, 13]: 92.9 ng/mL
- concentration at 2 h [2, 14]: 62.3 ng/mL
- concentration at 4 h [2, 11]: 15.4 ng/mL
- concentration at 4 h [2, 12]: 16.8 ng/mL
- concentration at 4 h [2, 13]: 15.4 ng/mL
- concentration at 4 h [2, 14]: 13.9 ng/mL
- concentration at 8 h [2, 11]: 8.6 ng/mL
- concentration at 8 h [2, 12]: 10.1 ng/mL
- concentration at 8 h [2, 13]: 10.6 ng/mL
- concentration at 8 h [2, 14]: 5.2 ng/mL
- concentration at 24 h ([2]; iv, 1 mg/kg, IV 1.0 mg/kg, 24 h, read-out: Conc. Mouse 3): 0.971 ng/mL
- % Ctrl [3]: 92 % Ctrl
- % Ctrl [4]: 8.2 % Ctrl
- binding to MET (in words) [5]: strong binding to MET
- % Ctrl ([5]; lower number = stronger binding): 0.75 % Ctrl
- % Ctrl [6]: 6.0 % Ctrl
